Reference: patent US20140308207A1, “OPEN MICROFLUIDIC DEVICES FOR CHEMOTAXIS, METHODS OF USING SAME, AND APPLICATIONS OF SAME” (priority 2013, published 2014)

Assays:
[1] = system: Dictyostelium discoideum cells
From the text: Cells were readily loaded by micropipetting into the cell loading area where they were allowed to settle and adhere to the silica cover slip. The channels were primed with buffer by a syringe; we observed that the cells randomly migrated on the surface. Once the cells adhered, cAMP was pumped in to form a chemoattractant gradient. To perform this function, a Harvard apparatus pump was used to create positive pressure on the chemoattractant loaded syringe.
As shown in FIG. 6(a), tracks of seven individual cells (A-G) migrating toward the cAMP source openings (open circles). The starting point for each cell is marked with and X. Scale bar is 20 μm. B.) Quantitation of the migration parameters for cells A-G. In the table as shown in FIG. 6(b), V, C.I., and P represent velocity (microns/min.), chemotactic index, and persistence, respectively. The multiple data points in the table for cells A-G represent different sections of the path as the cell traveled toward the cAMP source.
The cell buffer was used for water immersion.
The device was connected to an inlet and outlet syringe on a Harvard Apparatus syringe pump using microfluidic tubing. […]
In order to visualize the migration of cells and record the specifics of chemotactic response; a program was written with LabVIEW™ software. […] The measured centroids are overlayed on the image data so that the tracking of the cell can be visually verified. […]

[2] = system: Dictyostelium discoideum cells; conditions: AX2 cells expressing RBD-GFP, 10 μM cAMP, bulk silica device, cells A-E tracked
From the text: (Jowhar, et al., 2010.) D. discoideum cells expressing the Ras Binding Domain of Rafl and fused to the green fluorescent protein (RBD-GFP) were loaded into the open cell ports and exposed to gradients of the chemoattractant cAMP, as shown in FIG. 1E. […] Each 3 mm cell loading port was exposed to three different sources of cAMP (from three 3.0 μm gradient generating ports) under the control of a syringe or Harvard apparatus pump, which serves as a chemoattractant supply device. The syringe pump was used to apply a constant positive pressure to the loaded syringe, thus, preventing fluctuations in the gradient from potential backflow created by negative pressure.
A number of solitary cells that could be followed continuously were tracked using the Cell Tracker program written in LabVIEW™ software (FIG. 3a).
The starting point for each cell is marked with and X. Scale bar is 10 μm. In the table as shown in FIG. 3(b), V, C.I., and P represent velocity (microns/min.), chemotactic index, and persistence, respectively. The same cells were measured at different points along the traveled path to the source and are scored more than once. […]
In order to visualize the migration of cells and record the specifics of chemotactic response; a program was written with LabVIEW™ software. […] The measured centroids are overlayed on the image data so that the tracking of the cell can be visually verified.

myeloid cells = assay: Intravital imaging of a mouse with microfluidic coverslip; format: in vivo; conditions: 50 ng/ml added through coverslip device

| Compound | chemotaxis indices and persistence ([1]; AX2 cells expressing RBD-GFP, 100 nM cAMP, silica coverslip device with five ports, cells A-G tracked) | cell migration toward gradient ports ([1]; cells expressing LimE-RFP, cover slip device with three 15 μm ports, upright microscope, 80-minute series) | chemotaxis indices and persistence toward the source [2] | migration rates of myeloid cells (myeloid cells) |
| --- | --- | --- | --- | --- |
| Nc1ncnc2c1ncn2[C@@H]1O[C@@H]2COP(=O)(O)O[C@H]2[C@H]1O [cAMP, cyclic adenosine monophosphate] | good chemotaxis indices and persistence | rapidly migrated towards and into the cAMP gradient cover slip ports | strong chemotaxis indices and persistence |  |
| epidermal growth factor: growth factor added through the microfluidic coverslip to alter myeloid cell migration |  |  |  | migration rates altered |
